From patent US9409952B2, “Peptide-compound cyclization method” (Chugai Seiyaku Kabushiki Kaisha, priority 2011, dated 2016)
Positions of bridges follow the written chain, without caps; N, C: chain ends. Non-standard residues stand in square brackets, D forms with d. Residues, ends and D or L forms follow the SMILES beside them. *: point of attachment. NEtPhe = CCN[C@@H](Cc1ccccc1)C(=O)O; NMeF = CN[C@@H](Cc1ccccc1)C(=O)O; NMeI = CC[C@H](C)[C@H](NC)C(=O)O; NMeL = CN[C@@H](CC(C)C)C(=O)O; NMeV = CN[C@H](C(=O)O)C(C)C; NMeA = CN[C@@H](C)C(=O)O; Piperidide = C1CCN(*)CC1; dNMeA = CN[C@H](C)C(=O)O; Sar = CNCC(=O)O; tBu = CC(C)(C)*

Tests used:
[1] = PAMPA (parallel artificial membrane permeability assay); format: in vitro ADME; details: PAMPA; membrane permeation rate (Pe); 50 mM MOPSO buffer pH 6.5 with 5.0% glycocholic acid, 37° C., 18 hours; read-out: iPAMPA Pe
Procedure, shortened: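 Artificial membrane was 10% (w/v) egg lecithin plus 0.5% (w/v) cholesterol in dodecane on a PVDF filter. A 10 mM DMSO stock was added at 0.5% (v/v) to donor buffer (50 mM MOPSO, pH 6.5, 5.0% glycocholic acid). After 18 h at 37 °C, LC/MS or LC/UV gave donor and acceptor levels for Pe.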

[2] = Metabolic stability in human hepatic microsome; format: in vitro ADME; details: microsomes, pH 7.4; human hepatic microsome, NADPH(+); read-out: CL NADPH(+)

Structure (SMILES)	Papp at 18 hours, 50 µM [1] [×10⁻⁶ cm/s]	microsomal CLint at 1 uM [2] [µL/min/mg]
CC(C)C[C@H]1C(=O)N[C@@H](COC(C)(C)C)C(=O)N(C)[C@@H](Cc2ccccc2)C(=O)N(C)[C@@H](CC(C)C)C(=O)N[C@H](C(=O)N2CCCCC2)CC(=O)N(C)CC(=O)N[C@@H]([C@@H](C)O)C(=O)N1C [DP-743] ([Sar]T[NMeL]S(tBu)[NMeF][NMeL]D-Piperidide; lactam N-7)	16	126
CC(C)C[C@H]1C(=O)N[C@@H](C)C(=O)N(C)[C@@H](Cc2ccccc2)C(=O)N(C)[C@@H](C(C)C)C(=O)N[C@@H](Cc2ccccc2)C(=O)N(C)[C@@H](C)C(=O)N(C)[C@@H](C)C(=O)N[C@H](C(=O)N2CCCCC2)CC(=O)N(C)[C@H](C)C(=O)N[C@@H]([C@@H](C)O)C(=O)N(C)[C@@H](C)C(=O)N1C [DP-474] ([dNMeA]T[NMeA][NMeL]A[NMeF][NMeV]F[NMeA][NMeA]D-Piperidide; lactam N-11)	13	129
CC[C@H](C)[C@H]1C(=O)N(C)[C@@H](C)C(=O)N[C@@H](Cc2ccccc2)C(=O)N[C@@H]([C@@H](C)O)C(=O)N[C@@H](Cc2ccccc2)C(=O)N(C)[C@@H](CC(C)C)C(=O)N2CCC[C@H]2C(=O)N[C@H](C(=O)N2CCCCC2)CC(=O)N[C@@H](C)C(=O)N[C@@H](CC(C)C)C(=O)N(C)CC(=O)N[C@@H](CC(C)C)C(=O)N1C [DP-7] (AL[Sar]L[NMeI][NMeA]FTF[NMeL]PD-Piperidide; lactam N-12)	10	48
CC(C)C[C@H]1C(=O)N[C@@H](COC(C)(C)C)C(=O)N[C@H](C(=O)N2CCCCC2)CC(=O)N[C@H](C(C)C)C(=O)N(C)[C@@H](Cc2ccccc2)C(=O)N(C)[C@@H](C)C(=O)N(C)[C@@H](CC(C)C)C(=O)N[C@@H]([C@@H](C)O)C(=O)N(C)[C@@H](C)C(=O)N1C [DP-266] ([dV][NMeF][NMeA][NMeL]T[NMeA][NMeL]S(tBu)D-Piperidide; lactam N-9)	43	134
CC(C)C[C@@H]1NC(=O)[C@H](Cc2ccccc2)N(C)C(=O)CNC(=O)[C@H]([C@@H](C)O)NC(=O)[C@H](CC(C)C)N(C)C(=O)[C@H](COC(C)(C)C)NC(=O)[C@H](C)N(C)C(=O)C[C@@H](C(=O)N2CCCCC2)NC(=O)[C@H](Cc2ccccc2)NC(=O)[C@H](CC(C)C)N(C)C1=O [DP-437] ([NMeA]S(tBu)[NMeL]TG[NMeF]L[NMeL]FD-Piperidide; lactam N-10)	37	265
CC(C)C[C@@H]1NC(=O)C[C@@H](C(=O)N2CCCCC2)NC(=O)[C@H](COC(C)(C)C)NC(=O)[C@H](CC(C)C)N(C)C(=O)CN(C)C(=O)[C@H]([C@@H](C)O)NC(=O)[C@H](CC(C)C)N(C)C(=O)[C@H](Cc2ccccc2)N(C)C1=O [DP-692] (L[NMeF][NMeL]T[Sar][NMeL]S(tBu)D-Piperidide; lactam N-8)	29	212
CC[C@H](C)[C@H]1C(=O)N(C)[C@@H](CC(C)C)C(=O)N[C@H](C(=O)N2CCCCC2)CC(=O)N(C)CC(=O)N[C@@H](CC(C)C)C(=O)N[C@@H]([C@@H](C)O)C(=O)N(C)CC(=O)N(CC)[C@@H](Cc2ccccc2)C(=O)N[C@@H](C)C(=O)N(C)[C@@H](Cc2ccccc2)C(=O)N(C)[C@@H](CC(C)C)C(=O)N1C [DP-546] ([Sar]LT[Sar][NEtPhe]A[NMeF][NMeL][NMeI][NMeL]D-Piperidide; lactam N-11)	41	34
CC(C)C[C@H]1C(=O)N[C@@H]([C@@H](C)O)C(=O)N(C)[C@@H](C)C(=O)N(C)[C@@H](CC(C)C)C(=O)N[C@@H](C(C)C)C(=O)N[C@H](C(=O)N(C)[C@@H](Cc2ccccc2)C(=O)N(C)[C@@H](Cc2ccccc2)C(=O)N[C@@H](C)C(=O)N2CCCCC2)CC(=O)N(C)[C@H](C)C(=O)N(C)[C@@H](Cc2ccccc2)C(=O)N(C)CC(=O)N1C [DP-214] ([dNMeA][NMeF][Sar][NMeL]T[NMeA][NMeL]VD[NMeF][NMeF]A-Piperidide; lactam N-9)	34	33
